One compound from US5578315A, “Mucosal adhesive device for long-acting delivery of pharmaceutical combinations in oral cavity” (Rutgers, The State University of New Jersey, priority 1993, dated 1996) can be followed below.

The structures appear in SMILES notation. Values after ≈ are worked out from the molar mass of the structure shown.

What is called solubility is how much of the substance goes into solution per volume.

The data set can be described thus: Solubility in isotonic phosphate buffer containing PEG 400. Type of data set: physicochemical. The method, then:
For use of clotrimazole, solubility in phosphate buffer is an issue and therefore, 20% and 40% PEG 400 are added to the phosphate buffer and the solubility is determined.

Turning to `Clc1ccccc1C(c1ccccc1)(c1ccccc1)n1ccnc1` [clotrimazole, Clotrimazole], the solubility reads like this: (organic solvent or mixture, isotonic phosphate buffer (pH 6.8) containing 20% PEG 400) about 60 µg/mL (≈ 174 µM); (pH 6.8, organic solvent or mixture, phosphate buffer containing 40% PEG 400) about 430 µg/mL (≈ 1250 µM).
